Drawing on ChEMBL document CHEMBL1131689, “Synthesis and evaluation of geldanamycin-estradiol hybrids” (Bioorg Med Chem Lett, 1999), this text covers IC50 for four compounds.

Usually IC50 stands for the concentration that inhibits the measured activity by half. Low readings indicate greater potency, high ones weaker potency.

Format in all cases: functional, cell-based
Test [1] concerns the target Heat shock protein HSP90 (Homo sapiens, UniProt P07900+P08238). The experiment in a line: Inhibition of steady-state expression of Raf-1 in MCF-7 breast cancer cells. To be noted: mcf7.
Test [2] can be described thus: Inhibition of steady-state expression of ER in MCF-7 breast cancer cells. To be noted: Homo sapiens, MCF7.
The nature of test [3]: Inhibition of steady-state expression of HER2 in MCF-7 breast cancer cells. To be noted: Homo sapiens, MCF7.

Turning to `CO[C@@H]1/C=C\C=C(/C)C(=O)NC2=CC(=O)C(NCC#CC[C@@H]3C[C@H]4[C@@H]5CCc6cc(O)ccc6[C@H]5CC[C@]4(C)[C@H]3O)=C(C[C@H](C)C[C@@H](OC)[C@@H](O)[C@H](C)/C=C(\C)[C@H]1OC(N)=O)C2=O`, the figures for the half-maximal inhibitory concentration (IC50) in test [1], in test [2] and in test [3] were 1500 nM, 220 nM and 100 nM, respectively.
As to `CO[C@@H]1/C=C\C=C(/C)C(=O)NC2=CC(=O)C(NCCCC[C@@H]3C[C@H]4[C@@H]5CCc6cc(O)ccc6[C@H]5CC[C@]4(C)[C@H]3O)=C(C[C@H](C)C[C@@H](OC)[C@@H](O)[C@H](C)/C=C(\C)[C@H]1OC(N)=O)C2=O`, the IC50 in test [1], in test [2] and in test [3] was more than 2000 nM throughout.
Take `CO[C@@H]1/C=C\C=C(/C)C(=O)NC2=CC(=O)C(NCCC[C@@H]3C[C@H]4[C@@H]5CCc6cc(O)ccc6[C@H]5CC[C@]4(C)[C@H]3O)=C(C[C@H](C)C[C@@H](OC)[C@@H](O)[C@H](C)/C=C(\C)[C@H]1OC(N)=O)C2=O`: the IC50 in test [1], in test [2] and in test [3] was more than 2000 nM in each case.
On to `CO[C@@H]1/C=C\C=C(/C)C(=O)NC2=CC(=O)C(NC/C=C/C[C@@H]3C[C@H]4[C@@H]5CCc6cc(O)ccc6[C@H]5CC[C@]4(C)[C@H]3O)=C(C[C@H](C)C[C@@H](OC)[C@@H](O)[C@H](C)/C=C(\C)[C@H]1OC(N)=O)C2=O`, for which the figures for the IC50 in test [1], in test [2] and in test [3] were 1500 nM, 80 nM and 100 nM, respectively.
